Measured values published in ChEMBL document CHEMBL5465560, “Selectivity Literature for EUbOPEN Chemogenomic Library” (2024).
One block for each molecule: values may come before it.

Assays:
[1] = molecular target: Serine/threonine-protein kinase 10 (Homo sapiens) (UniProt O94804); conditions: at 10 µM
[2] = molecular target: Histone-lysine N-methyltransferase 2C (Homo sapiens) (UniProt Q8NEZ4); experiment: Selectivity interaction (Methyltransferase screen (Scintillation proximity assays)) EUB0000255b MLL3
[3] = molecular target: Fibroblast growth factor receptor 3 (Homo sapiens, UniProt P22607); experiment: (§1) Selectivity interaction (ProQinase) EUB0000171b FGFR3
Fibroblast growth factor receptor 3, sequence (P22607 23-806 limits assumed): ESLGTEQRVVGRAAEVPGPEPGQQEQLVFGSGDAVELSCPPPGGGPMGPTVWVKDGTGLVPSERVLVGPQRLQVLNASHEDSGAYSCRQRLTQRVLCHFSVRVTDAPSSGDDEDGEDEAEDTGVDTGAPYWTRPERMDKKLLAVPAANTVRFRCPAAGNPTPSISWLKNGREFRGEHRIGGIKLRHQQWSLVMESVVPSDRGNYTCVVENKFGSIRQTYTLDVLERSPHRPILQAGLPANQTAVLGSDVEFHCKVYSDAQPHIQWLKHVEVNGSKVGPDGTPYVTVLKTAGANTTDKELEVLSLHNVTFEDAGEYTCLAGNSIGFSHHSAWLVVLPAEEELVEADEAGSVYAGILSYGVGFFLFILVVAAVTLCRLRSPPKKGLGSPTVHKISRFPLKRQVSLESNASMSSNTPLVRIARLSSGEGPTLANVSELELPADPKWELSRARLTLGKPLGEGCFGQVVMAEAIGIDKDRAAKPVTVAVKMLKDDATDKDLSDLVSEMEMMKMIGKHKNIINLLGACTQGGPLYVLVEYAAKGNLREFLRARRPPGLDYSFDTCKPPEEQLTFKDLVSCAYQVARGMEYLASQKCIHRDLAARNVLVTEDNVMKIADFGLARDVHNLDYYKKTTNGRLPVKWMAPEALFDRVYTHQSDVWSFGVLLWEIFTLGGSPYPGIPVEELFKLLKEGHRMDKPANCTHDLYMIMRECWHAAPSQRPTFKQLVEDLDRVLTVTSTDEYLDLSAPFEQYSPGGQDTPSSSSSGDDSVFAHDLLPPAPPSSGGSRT

[4] = test system: Fibroblast growth factor receptor 3 (Homo sapiens), P22607 [K650E]; experiment: as §1
Fibroblast growth factor receptor 3 (Homo sapiens), P22607 [K650E], sequence (P22607 whole entry K650E): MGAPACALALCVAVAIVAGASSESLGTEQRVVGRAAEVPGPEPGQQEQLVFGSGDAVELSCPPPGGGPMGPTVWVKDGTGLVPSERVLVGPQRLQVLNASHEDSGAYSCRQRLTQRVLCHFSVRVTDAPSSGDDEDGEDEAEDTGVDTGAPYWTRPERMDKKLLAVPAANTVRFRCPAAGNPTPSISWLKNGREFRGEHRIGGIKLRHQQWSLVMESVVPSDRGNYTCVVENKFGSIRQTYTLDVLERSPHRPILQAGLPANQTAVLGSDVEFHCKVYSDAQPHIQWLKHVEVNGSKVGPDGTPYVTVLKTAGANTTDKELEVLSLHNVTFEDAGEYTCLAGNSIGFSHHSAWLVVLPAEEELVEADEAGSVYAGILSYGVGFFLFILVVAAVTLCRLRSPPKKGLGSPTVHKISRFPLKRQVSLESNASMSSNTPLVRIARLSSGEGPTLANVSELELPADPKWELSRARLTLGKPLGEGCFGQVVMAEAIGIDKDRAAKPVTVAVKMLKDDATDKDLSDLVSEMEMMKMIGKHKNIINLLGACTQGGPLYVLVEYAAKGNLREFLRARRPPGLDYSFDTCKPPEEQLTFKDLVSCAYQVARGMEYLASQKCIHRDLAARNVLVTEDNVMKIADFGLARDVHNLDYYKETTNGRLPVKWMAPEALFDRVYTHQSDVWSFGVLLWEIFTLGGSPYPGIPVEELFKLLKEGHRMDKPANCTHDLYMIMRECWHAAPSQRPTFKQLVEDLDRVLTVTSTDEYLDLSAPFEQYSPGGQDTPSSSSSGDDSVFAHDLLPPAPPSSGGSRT

[5] = test system: Fibroblast growth factor receptor 3 (Homo sapiens), P22607 [G697C]; experiment: as §1
Fibroblast growth factor receptor 3 (Homo sapiens), P22607 [G697C], sequence (P22607 whole entry G697C): as the sequence (P22607 whole entry K650E) above, with E650K, G697C counted along it

[6] = test system: Fibroblast growth factor receptor 3 (Homo sapiens), P22607 [K650M]; experiment: as §1
Fibroblast growth factor receptor 3 (Homo sapiens), P22607 [K650M], sequence (P22607 whole entry K650M): as the sequence (P22607 whole entry K650E) above, with E650M counted along it

[7] = molecular target: Serine/threonine-protein kinase PAK 1 (Homo sapiens) (UniProt Q13153); experiment: Selectivity interaction (ProQinase) EUB0000171b PAK1
Serine/threonine-protein kinase PAK 1 (Homo sapiens), sequence (Q13153 whole entry): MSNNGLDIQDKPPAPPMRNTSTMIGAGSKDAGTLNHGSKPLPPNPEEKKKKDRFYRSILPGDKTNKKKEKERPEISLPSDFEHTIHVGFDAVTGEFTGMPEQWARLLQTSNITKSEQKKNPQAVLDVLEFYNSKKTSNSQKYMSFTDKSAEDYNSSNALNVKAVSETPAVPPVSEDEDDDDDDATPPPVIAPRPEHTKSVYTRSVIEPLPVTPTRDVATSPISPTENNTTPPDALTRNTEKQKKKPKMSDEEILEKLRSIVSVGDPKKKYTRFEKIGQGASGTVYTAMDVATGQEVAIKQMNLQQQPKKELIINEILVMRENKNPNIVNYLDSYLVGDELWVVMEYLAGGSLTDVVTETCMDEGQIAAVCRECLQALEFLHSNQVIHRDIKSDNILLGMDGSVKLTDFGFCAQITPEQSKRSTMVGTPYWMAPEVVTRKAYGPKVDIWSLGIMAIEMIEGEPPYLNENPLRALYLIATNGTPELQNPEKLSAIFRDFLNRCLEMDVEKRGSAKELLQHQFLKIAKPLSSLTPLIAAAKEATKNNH

[8] = molecular target: T1, Cyclin-G-associated kinase (Homo sapiens) (UniProt O14976); experiment: Selectivity interaction (KinomeScan (DiscoverX)) EUB0000695a GAK; conditions: at 100 nM
T1 sequence (whole entry): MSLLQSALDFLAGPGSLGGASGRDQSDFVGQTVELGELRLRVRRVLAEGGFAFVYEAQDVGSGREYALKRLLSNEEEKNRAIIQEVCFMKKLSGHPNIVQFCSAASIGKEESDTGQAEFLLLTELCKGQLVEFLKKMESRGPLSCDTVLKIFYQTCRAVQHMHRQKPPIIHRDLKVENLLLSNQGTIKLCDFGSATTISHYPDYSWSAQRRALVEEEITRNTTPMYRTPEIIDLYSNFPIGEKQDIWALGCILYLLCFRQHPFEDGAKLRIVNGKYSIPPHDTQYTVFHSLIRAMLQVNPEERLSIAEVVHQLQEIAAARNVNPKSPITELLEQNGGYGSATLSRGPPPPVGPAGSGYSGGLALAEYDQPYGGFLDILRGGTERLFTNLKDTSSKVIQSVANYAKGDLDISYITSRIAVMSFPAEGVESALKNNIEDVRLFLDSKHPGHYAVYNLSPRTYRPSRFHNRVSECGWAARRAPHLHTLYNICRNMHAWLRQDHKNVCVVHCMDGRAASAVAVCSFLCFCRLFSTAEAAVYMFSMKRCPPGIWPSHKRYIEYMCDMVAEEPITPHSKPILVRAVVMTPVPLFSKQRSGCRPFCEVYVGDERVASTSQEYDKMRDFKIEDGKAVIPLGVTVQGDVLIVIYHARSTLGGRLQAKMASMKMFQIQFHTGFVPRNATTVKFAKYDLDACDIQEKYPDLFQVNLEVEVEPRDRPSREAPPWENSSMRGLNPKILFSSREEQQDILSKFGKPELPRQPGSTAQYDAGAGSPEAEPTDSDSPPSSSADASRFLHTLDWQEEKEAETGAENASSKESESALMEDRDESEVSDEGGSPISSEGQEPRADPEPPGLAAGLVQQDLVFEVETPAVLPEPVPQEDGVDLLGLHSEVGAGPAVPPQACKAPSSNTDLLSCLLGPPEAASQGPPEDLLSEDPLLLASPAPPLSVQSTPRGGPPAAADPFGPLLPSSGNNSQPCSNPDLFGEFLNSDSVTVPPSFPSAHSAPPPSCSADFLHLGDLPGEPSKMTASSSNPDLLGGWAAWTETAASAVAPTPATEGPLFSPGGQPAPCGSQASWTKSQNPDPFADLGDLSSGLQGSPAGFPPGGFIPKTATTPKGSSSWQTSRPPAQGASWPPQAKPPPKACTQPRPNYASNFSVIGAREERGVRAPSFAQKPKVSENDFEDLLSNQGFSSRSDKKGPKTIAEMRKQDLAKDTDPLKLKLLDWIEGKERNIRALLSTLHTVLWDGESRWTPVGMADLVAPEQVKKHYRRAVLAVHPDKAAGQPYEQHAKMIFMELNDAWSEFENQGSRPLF

[9] = molecular target: T2, Receptor-interacting serine/threonine-protein kinase 4 (Homo sapiens) (UniProt P57078); experiment: Selectivity interaction (KinomeScan (DiscoverX)) EUB0000092b RIPK4; conditions: at 10 µM
T2 sequence (whole entry): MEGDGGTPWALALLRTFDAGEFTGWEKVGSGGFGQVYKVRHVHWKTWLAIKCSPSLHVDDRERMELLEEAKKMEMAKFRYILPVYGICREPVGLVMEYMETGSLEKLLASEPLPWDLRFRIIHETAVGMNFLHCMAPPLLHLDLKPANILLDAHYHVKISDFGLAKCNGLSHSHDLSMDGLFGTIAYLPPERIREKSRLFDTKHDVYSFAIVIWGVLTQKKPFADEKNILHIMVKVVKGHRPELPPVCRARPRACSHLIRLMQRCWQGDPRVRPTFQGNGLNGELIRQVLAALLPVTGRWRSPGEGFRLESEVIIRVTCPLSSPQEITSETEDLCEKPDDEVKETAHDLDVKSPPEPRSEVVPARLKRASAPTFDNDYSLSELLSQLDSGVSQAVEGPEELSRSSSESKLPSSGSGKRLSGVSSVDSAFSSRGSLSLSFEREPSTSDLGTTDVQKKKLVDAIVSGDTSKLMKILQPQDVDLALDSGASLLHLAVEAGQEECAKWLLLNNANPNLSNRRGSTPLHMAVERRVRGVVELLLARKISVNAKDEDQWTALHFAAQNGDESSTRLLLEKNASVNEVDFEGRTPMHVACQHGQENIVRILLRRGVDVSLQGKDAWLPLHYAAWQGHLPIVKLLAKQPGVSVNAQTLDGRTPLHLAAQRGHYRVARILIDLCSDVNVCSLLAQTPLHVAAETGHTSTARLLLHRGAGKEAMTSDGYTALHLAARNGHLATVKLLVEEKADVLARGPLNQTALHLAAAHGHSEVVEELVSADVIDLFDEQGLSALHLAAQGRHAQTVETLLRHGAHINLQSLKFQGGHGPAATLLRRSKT

[10] = molecular target: Tyrosine-protein kinase Fyn (Homo sapiens) (UniProt P06241); experiment: Selectivity interaction (ActivX KiNativ screen (ex vivo kinase selectivity in human PBMCs)) EUB0001619a FYN; type: cell-based; conditions: PBMC, at 1 µM
Tyrosine-protein kinase Fyn (Homo sapiens), sequence (P06241 2-537 limits assumed): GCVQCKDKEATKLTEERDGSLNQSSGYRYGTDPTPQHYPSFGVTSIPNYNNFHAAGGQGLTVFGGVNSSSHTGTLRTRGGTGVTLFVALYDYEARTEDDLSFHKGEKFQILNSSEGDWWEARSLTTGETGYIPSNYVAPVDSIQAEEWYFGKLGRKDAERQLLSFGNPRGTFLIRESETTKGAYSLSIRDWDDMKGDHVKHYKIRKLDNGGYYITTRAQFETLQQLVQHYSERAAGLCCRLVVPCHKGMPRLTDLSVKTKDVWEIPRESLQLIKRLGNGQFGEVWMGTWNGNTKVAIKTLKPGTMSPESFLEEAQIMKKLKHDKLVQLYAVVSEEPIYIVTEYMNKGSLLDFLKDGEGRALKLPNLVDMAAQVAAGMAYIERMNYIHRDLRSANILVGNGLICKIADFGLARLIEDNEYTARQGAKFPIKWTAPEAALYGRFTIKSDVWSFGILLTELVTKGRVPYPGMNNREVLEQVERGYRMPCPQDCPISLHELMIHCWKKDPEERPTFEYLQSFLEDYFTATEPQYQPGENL

Serine/threonine-protein kinase 10 (Homo sapiens), sequence (O94804 whole entry, looked up): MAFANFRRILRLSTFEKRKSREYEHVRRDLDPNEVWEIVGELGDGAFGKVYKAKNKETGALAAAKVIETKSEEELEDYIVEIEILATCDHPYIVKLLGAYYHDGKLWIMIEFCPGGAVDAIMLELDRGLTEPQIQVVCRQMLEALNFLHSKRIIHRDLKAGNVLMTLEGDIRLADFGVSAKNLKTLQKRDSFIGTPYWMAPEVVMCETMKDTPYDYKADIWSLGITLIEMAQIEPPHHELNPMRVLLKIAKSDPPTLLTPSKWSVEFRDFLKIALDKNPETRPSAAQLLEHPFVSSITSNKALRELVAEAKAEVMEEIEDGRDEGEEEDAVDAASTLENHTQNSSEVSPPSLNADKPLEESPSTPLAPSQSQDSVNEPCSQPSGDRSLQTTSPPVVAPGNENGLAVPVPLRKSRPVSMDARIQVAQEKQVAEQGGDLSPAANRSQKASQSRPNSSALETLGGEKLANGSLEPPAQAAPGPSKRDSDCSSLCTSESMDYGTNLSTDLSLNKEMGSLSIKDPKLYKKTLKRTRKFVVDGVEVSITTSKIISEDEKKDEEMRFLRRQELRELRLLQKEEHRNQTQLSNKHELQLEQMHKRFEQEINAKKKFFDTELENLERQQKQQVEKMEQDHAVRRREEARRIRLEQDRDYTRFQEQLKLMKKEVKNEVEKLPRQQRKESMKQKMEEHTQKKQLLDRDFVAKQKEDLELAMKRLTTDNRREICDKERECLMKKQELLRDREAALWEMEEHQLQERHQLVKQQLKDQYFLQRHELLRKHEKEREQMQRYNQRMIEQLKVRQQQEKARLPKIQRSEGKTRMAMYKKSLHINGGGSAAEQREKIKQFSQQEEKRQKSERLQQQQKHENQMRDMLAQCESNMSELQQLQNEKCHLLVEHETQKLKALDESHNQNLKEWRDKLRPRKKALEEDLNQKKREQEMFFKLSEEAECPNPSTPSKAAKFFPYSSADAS

% of control [1]: 100%
SMILES: CCN(CC)CCCCNc1ncc2cc(-c3cc(OC)cc(OC)c3)c(NC(=O)NC(C)(C)C)nc2n1

SMILES: COCCN1CCC(c2cc(CN(C)C(=O)c3cccc(Oc4ccccc4)c3)ccn2)CC1
% activity ([2]; at 1 µM): > 95%
% activity ([2]; at 10 µM): > 90%

% of control ([3]; at 1 µM): 98%
% of control ([3]; at 5 µM): 78%
% of control ([4]; at 1 µM): 104%
% of control ([4]; at 5 µM): 79%
% of control ([5]; at 1 µM): 103%
% of control ([5]; at 5 µM): 83%
% of control ([6]; at 1 µM): 97%
% of control ([6]; at 5 µM): 72%
% of control ([7]; at 1 µM): 90%
% of control ([7]; at 5 µM): 84%
SMILES: C=CC(=O)Nc1cccc(C(=O)Nc2ccc(Nc3cc(-c4[nH]c(SC)nc4C)ccn3)cc2)c1

SMILES: Cc1cc(F)c(C(=O)Nc2cccc(-c3nncn3C(C)C)n2)cc1-n1cnc(C2CC2)c1
% of control [8]: 88%

SMILES: CCC(=O)N1CCN(c2ccc(-n3c(=O)ccc4cnc5ccc(-c6cnc7ccccc7c6)cc5c43)cc2C(F)(F)F)CC1
% of control [9]: 100%

SMILES: N#Cc1cccc(-c2c[nH]c3ncnc(N4CCOCC4)c23)c1
% of inhibition [10]: -9%
